Measured values as given in patent US10227331B2 (priority 2015, dated 2019).

Assays:
[1] = tested on: P. aeruginosa expressing IMP-1, efflux− (MB9799); test: Efflux: concentration of MBL inhibitor which restores susceptibility to imipenem; type: cell-based, Pseudomonas aeruginosa; conditions: imipenem at 2 μg/mL, in the presence of a class A, C, D serine β-lactamase inhibitor closely related to relebactam
From the text: (§1) The strain background is Pseudomonas aeruginosa PAO1.

[2] = tested on: Klebsiella pneumoniae expressing VIM-1 (IHMA599644); type: cell-based; conditions: with imipenem 1 μg/ml; 95% inhibition of bacterial growth
Protocol: (§2) Antibiotic Potentiation Activity: Determination of Synergistic Concentration
(§3) The bacterial strains tested included the clinical strains Escherichia coli expressing NDM-1 (CLB30005, CLB30016), Serratia marcescens expressing IMP-1 (CL5741), and Klebsiella pneumoniae expressing VIM-1 (IHMA599644). Inhibitor activity was measured in the presence and absence of imipenem in a 384-well microplate.
(§4) The clinical strains CLB30016, CL5741 and IHMA599644 were grown on trypticase soy agar containing 5% sheep's blood. The bacteria on agar plates were incubated at 35° C. with humidity overnight. The following day, individual colonies from each clinical strain were picked and resuspended in 5 ml saline to attain an OD600 of […], for CLB30016, CL5741 and IHMA599644, respectively. These were further diluted 1:100 into 1.1×CAMHB and used to inoculate the test wells as described below.
(§5) Imipenem in 10 mM 3-(N-morpholino)propanesulfonic acid (MOPS, pH 7) was stored in single use aliquots at −80° C. […] On the day of the assay, 4 μl of antibiotic was added to 45 ul of bacteria followed by 1 μl of test compound and mixed by pipetting and with an orbital shaker. The concentration of antibiotic used in the assay was 1 μg/ml. Microplates were covered and incubated at 35° C. for 22 hours to 24 hours. At the end of the incubation, absorbance was determined using a spectrophotometer.
(§6) For example, in general, the compounds of Examples 1-379 were determined to restore susceptibility to imipenem for one or more of the test organisms at concentrations of 100 μM or less.

[3] = tested on: Serratia marcescens expressing IMP-1 (CL5741); type: cell-based; conditions: with imipenem 1 μg/ml; 95% inhibition of bacterial growth
Protocol: as §2, §3, §4, §5, §6

[4] = tested on: Escherichia coli expressing NDM-1 (CLB30005, CLB30016); type: cell-based; conditions: with imipenem 1 μg/ml; 95% inhibition of bacterial growth
Protocol: as §2, §3, §4, §5, §6

NDM-1 = NDM-1 (Klebsiella pneumoniae, UniProt C7C422); test: biochemical; type: biochemical; conditions: CCF2-FA substrate, 2 hours at 25° C; read-out: NDM-1 IC50
Protocol: (§7) Enzyme Activity: Determination of IC50
(§8) The Class B enzyme activities were measured in the presence of the test inhibitor in a fluorescence assay against a commercially available substrate consisting of a cephalosporin core linking 7-hydroxycoumarin to fluorescein (CCF2-FA). […] In a 384-well microplate, the test inhibitor was incubated with the metallo-β-lactamase enzyme and the substrate for 2 hours at 25° C. […] The IC50 value was determined from semi-logarithmic plots of enzyme inhibition versus inhibitor concentration, with a curve generated using a 4-parameter fit.

IMP-1 = IMP-1 (Serratia marcescens, UniProt P52699); test: biochemical; type: biochemical; conditions: CCF2-FA substrate, 2 hours at 25° C; read-out: IMP-1 IC50
Protocol: as §7, §8

VIM-1 = VIM-1 (Pseudomonas aeruginosa (strain ATCC 15692 / DSM 22644 / CIP 104116 / JCM 14847 / LMG 12228 / 1C / PRS 101 / PAO1), UniProt A0A0F7KYQ8); test: biochemical; conditions: CCF2-FA substrate, 2 hours at 25° C
Protocol: as §7, §8

[5] = tested on: P. aeruginosa expressing IMP-1, efflux+ (MB9798); type: cell-based, Pseudomonas aeruginosa; conditions: for P. aeruginosa expressing IMP-1, efflux+ (MB9798) MITC95: imipenem at 2 μg/mL, in the presence of a class A, C, D serine β-lactamase inhibitor closely related to relebactam; for Efflux ratio: ratio MITC95 PA_9798/MITC95 PA_9799
From the text: as §1

Chain of NDM-1 (C7C422 whole entry, looked up, species assumed): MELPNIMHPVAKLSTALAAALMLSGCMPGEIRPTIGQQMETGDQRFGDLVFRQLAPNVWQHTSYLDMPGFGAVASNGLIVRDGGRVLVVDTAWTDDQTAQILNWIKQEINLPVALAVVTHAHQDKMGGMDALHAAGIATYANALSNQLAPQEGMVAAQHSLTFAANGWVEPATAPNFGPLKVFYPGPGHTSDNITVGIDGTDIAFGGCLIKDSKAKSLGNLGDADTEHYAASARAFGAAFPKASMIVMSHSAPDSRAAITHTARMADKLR
Chain of IMP-1 (P52699 whole entry, looked up, species assumed): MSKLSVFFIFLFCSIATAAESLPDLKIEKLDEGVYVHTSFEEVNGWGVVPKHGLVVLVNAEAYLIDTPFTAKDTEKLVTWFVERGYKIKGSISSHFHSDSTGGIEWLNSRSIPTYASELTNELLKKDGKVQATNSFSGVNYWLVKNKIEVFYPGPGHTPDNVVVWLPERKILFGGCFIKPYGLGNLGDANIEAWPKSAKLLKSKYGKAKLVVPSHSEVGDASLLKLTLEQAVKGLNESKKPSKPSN

Row | SMILES | P. aeruginosa expressing IMP-1, efflux− (MB9799) MITC95 [1] [µM] | Klebsiella pneumoniae expressing VIM-1 (IHMA599644) MITC95 [2] [µM] | Serratia marcescens expressing IMP-1 (CL5741) MITC95 [3] [µM] | Escherichia coli expressing NDM-1 (CLB30016) MITC95 [4] [µM] | IC50 (NDM-1) [nM] | IC50 (IMP-1) [nM] | IC50 (VIM-1) [nM] | P. aeruginosa expressing IMP-1, efflux+ (MB9798) MITC95 [5] [µM] | Efflux ratio [5]
1 | NS(=O)(=O)c1c(S(=O)(=O)C2CNC2)ccc(-c2cnc3ccccn23)c1-c1nn[nH]n1 [Example 9, 6-(Azetidin-3-ylsulfonyl)-3-(imidazo[1,2-a]pyridin-3-yl)-2-(2H-tetrazol-5-yl)benzenesulfonamide] | 1.563 | 3.125 | 1.563 | 0.7813 | 0.332 | 0.913 | 0.375 | 6.25 | 4.00
2 | Nc1ccc(-c2ccc([S+]([O-])C3CCNCC3)c(S(N)(=O)=O)c2-c2nn[nH]n2)cn1 (stereo not drawn) [Example 10, 3-(6-aminopyridin-3-yl)-6-(piperidin-4-ylsulfinyl)-2-(2H-tetrazol-5-yl)benzenesulfonamide] | 3.125 | 6.25 | 6.25 | 6.25 | 3.2 | 27.3 | 6.46 | 6.25 | 2.00
3 | Nc1nc2ccc(-c3ccc([S+]([O-])C4CCNCC4)c(S(N)(=O)=O)c3-c3nn[nH]n3)cc2[nH]1 (stereo not drawn) [Example 12, 3-(2-amino-3H-benzo[d]imidazol-5-yl)-6-(piperidin-4-ylsulfinyl)-2-(2H-tetrazol-5-yl)benzenesulfonamide] | 3.125 | 6.25 | 6.25 | 6.25 | 4.06 | 130 | 4.36 | 25 | 8.00
4 | Nc1nc2c(-c3ccc([S+]([O-])C4CNC4)c(S(N)(=O)=O)c3-c3nn[nH]n3)cccc2[nH]1 (stereo not drawn) [Example 13, 3-(2-amino-1H-benzo[d]imidazol-4-yl)-6-(azetidin-3-ylsulfinyl)-2-(2H-tetrazol-5-yl)benzenesulfonamide] | 1.563 | 1.563 | 3.125 | 0.3906 | 0.619 | 50.8 | 6.61 | 6.25 | 4.00
5 | Nc1nc2cccc(-c3ccc([S+]([O-])C4CCNCC4)c(S(N)(=O)=O)c3-c3nn[nH]n3)c2[nH]1 (stereo not drawn) [Example 14, 3-(2-amino-3H-benzo[d]imidazol-4-yl)-6-(piperidin-4-ylsulfinyl)-2-(2H-tetrazol-5-yl)benzenesulfonamide] | 1.563 | 3.125 | 3.125 | 6.25 | 0.292 | 23.9 | 0.868 | 6.25 | 4.00
